Read-outs that look alike come from different tables or passages of the source.
How the values were obtained:
[1] = test system: MDR-transfected glioblastoma cells; assay: Cytotoxicity in drug resistant glioblastoma cells; conditions: 50 μM
Description: The neoplastic cell lines used in the survey were standard tumor cell lines, e.g., PA1 human ovarian cell line, SKOV3 human ovarian cell line, HT29 human colon tumor cell line, DU145 human prostate tumor cell line, U251 human glioblastoma cell line, U251-MDR human glioblastoma cell line transfected with DNA encoding MDR, T98G human glioblastoma cell line, SP-1 human leukemia cell line, and Daudi human leukemia cell line.
Glioblastoma cells were transfected with a gene encoding multiple drug resistance (MDR).

PA-1 cells = assay: PARP cleavage, Western-blot; format: cell-based, human; conditions: PA-1, 24 h exposure to 50 μM or 100 μM
Procedure: (§1) Two×10^6 cells were seeded in 150 cm^2 tissue culture flasks. […] After an additional twenty-four hours, cells were harvested, cell number determined, and aliquots derived from equal cell numbers generated from each exposure condition. Total proteins from these whole cell lysates were separated by SDS-PAGE and transferred to nitrocellulose filters. Filters were then immunoblotted to detect intact PARP protein and cleavage fragments by using the clone C-2-10 mouse monoclonal anti-PARP antibody (Zymed Laboratories, San Francisco, Calif.). The resulting protein-antibody complexes were visualized by chemiluminescence techniques.
(§2) Western-blot analysis was used to assess of PARP cleavage. Two×10^6 cells were seeded into separate 75 cm^2 tissue culture flasks containing 20 ml of tissue culture media plus serum. […] Twenty-four hours after the addition of Taurolidine, cells were harvested cell number determined, and aliquots containing an equal cell number were generated from each exposure condition. Total proteins from whole cell lysates generated from these aliquots were separated by SDS-PAGE and electrotransferred to nitrocellulose filters. Filters were then processed to detect intact PARP protein and cleavage fragments by using the clone C-2-10 mouse monoclonal anti-PARP antibody (Zymed Laboratories, San Francisco, Calif.). […]

SKOV-3 cells = assay: PARP cleavage, Western-blot; format: cell-based, human; conditions: SKOV-3, 24 h exposure to 50 μM or 100 μM
Procedure: as §1, §2

[2] = test system: panel of human and murine tumor cell lines; assay: Cell growth inhibition, panel summary; format: cell-based; conditions: for IC50: 72 h; for cytotoxic concentration lower than that for antibacterial/antibiotic effect: versus concentrations used to inhibit bacterial cell growth
Procedure: (§3) Parallel studies were carried out to assess whether disruption of cell adhesion played a role in the cytotoxic activity.
(§4) One ml of this cell suspension was added to each well of a 12 well cell culture plate that contained 3 ml of appropriate media plus serum. […] Control wells received 40 μl of 5% Kollidon 17 PF alone. Seventy-two hours later, all cells were harvested by trypsinization and cell number determined electronically using a Coulter Model Z1 particle counter (Coulter Corp., Miami, Fla.) to assess cell growth inhibition. Each experiment was performed in duplicate and repeated a minimum of three times.
(§5) Cells were seeded at a density of 1-5×10^4 cells in each well of a 6 well tissue culture flask. […] After three days, cells were harvested by trypsinization and cell number determined electronically. Cell growth inhibition was determined by comparison to non-Taurolidine exposed control cultures. The IC50 was calculated as the concentration required to inhibit cell number by 50%.

H-157 lung tumor cells = assay: Cell growth inhibition, 3 d exposure, cell counting; format: cell-based; conditions: Homo sapiens, NCI-H157, 72 h
Procedure: as §4, §5

MNT-1 melanoma cells = assay: as above; format: cell-based; conditions: Homo sapiens, 72 h
Procedure: as §4, §5

[3] = test system: SKOV-3 human ovarian tumor cells; assay: as above; format: cell-based; conditions: SK-OV-3, 72 h, SKOV-3 (ovary)
Procedure: as §4, §5

[4] = test system: NIH-3T3 murine fibroblasts; assay: as above; format: cell-based
Procedure: as §4, §5

A-549 lung tumor cells = assay: as above; format: cell-based; conditions: Homo sapiens, A549, 72 h
Procedure: as §4, §5

U-251 glioma cells = assay: as above; format: cell-based; conditions: Homo sapiens, 72 h, U-251 (brain)
Procedure: as §4, §5

HT-29 colon tumor cells = assay: as above; format: cell-based; conditions: Homo sapiens, 72 h
Procedure: as §4, §5

[5] = test system: PA-1 human ovarian tumor cells; assay: as above; format: cell-based; conditions: PA-1 (ovary)
Procedure: as §4, §5

[6] = test system: SKOV-3 human ovarian tumor cells; assay: Cell cycle distribution and sub-G0/G1 DNA debris, flow cytometry; format: cell-based; conditions: for Cell Cycle Distribution, G0G1 / Cell Cycle Distribution, G2/M / Cell Cycle Distribution, S: SKOV3, 48 h
Procedure: Three×10^5 cells were seeded in plastic tissue culture flasks. […] Control cultures received an appropriate volume of Kollidine-17P. […] The percentage of DNA debris in the sub-G0/G1 region was assessed using cytofluorometric techniques. Each bar represents the mean (±SE) of three determinations. ** p≦0.01, *** p≦0.001, **** p≦0.0001
For flow cytometry studies, 1×10^6 PA-1, SKOV-3, or NIH-3T3 cells were incubated for 24 h in appropriate media containing serum. […] Control cultures for each cell line were incubated in media containing 40 μl of 5% Kollidon 17 PF alone. Forty-eight hours later, all cells were harvested by trypsinization and prepared for cytofluorometric analysis by standard methods. For example, harvested cells were resuspended in ice cold phosphate-buffered saline at a final cell density of 2×10^6 cells/ml. The cells then were stained for 30 min at room temperature in the dark with a solution of 0.05 mg/ml propidium iodide, 0.6% Igepal, and 1% sodium citrate. Flow cytometry was performed by FACScan (Becton Dickinson, Plymouth, England) using the ModFit LT program (Becton Dickinson). Statistical analysis was performed with the Kruskal Wallis non-parametric ANOVA test followed by Dunn's multiple comparisons test using Instat.
Three×10^5 cells were seeded in plastic tissue culture flasks. […] Control cultures received an appropriate volume of Kollidine-17P. After an additional 48 h, cells were harvested, stained with propidium iodide, and cell cycle distribution assessed using cytofluorometric techniques. Each value represents the percentage of cells in the noted cell cycle phases and is the mean±SEM of three determinations.

NIH-3T3 cells = assay: PARP cleavage, Western-blot; format: cell-based, murine; conditions: NIH-3T3, 24 h exposure to 50 or 100 μM
Procedure: as §1, §2

[7] = test system: human ovarian tumor cells; assay: Growth of established tumor cell colonies in vitro; format: cell-based; conditions: 24-hour exposure to 50 μM
Procedure: as §3

[8] = test system: human Burkitt's lymphoma cell line, Daudi cell line; assay: Killing of non-anchorage-dependent tumor cells in suspension culture; format: cell-based; conditions: 10-20 μM for 72 hours
Procedure: Two different non-anchorage-dependent tumor cell lines (a human Burkitt's lymphoma cell line, and a Daudi cell line), and precancerous cell line (a human myelodysplastic cell line) were grown in suspension culture.

For `O=S1(=O)CCN(CN2CCS(=O)(=O)NC2)CN1` [Taurolidine, Bis-(1,1-dioxoperhydro-1,2,4-thiadiazinyl-4)methane], the cytotoxicity [1] was “Significant cytotoxicity”, the PARP cleavage (PA-1 cells) was “resulted in PARP cleavage” and the PARP cleavage (SKOV-3 cells) was “resulted in PARP cleavage”. The IC50 ([2]; 3 d exposure, panel of human and murine tumor cell lines, read-out: IC50s over all cell lines evaluated) was 10 to 50 µM, the IC50 ([2]; 3-day exposure, human cancer cell lines, read-out: concentration required to inhibit tumor cell growth (IC50)) was 12.5 to 50 µM and the “cytotoxic concentration lower than that for antibacterial/antibiotic effect” value [2] was “approximately 100 fold”. For the same compound, the “cytotoxic concentration lower than that for antibacterial/antibiotic effect” value ([2]; listed as taurolidine) was “at least 1000 fold”, the IC50 (H-157 lung tumor cells) was 32.2 ± 5.6 µM and the IC50 (MNT-1 melanoma cells) was 22.1 ± 2.1 µM. For the same compound, the IC50 [3] was 31.6 ± 7 µM, the IC50 [4] was 11.9 ± 1.8 µM and the IC50 ([4]; Mus musculus, NIH3T3, 72 h) was about 10 µM. For the same compound, the IC50 (A-549 lung tumor cells) was 26.8 ± 7.2 µM, the IC50 (U-251 glioma cells) was 20.1 ± 2.7 µM and the IC50 (HT-29 colon tumor cells) was 18.6 ± 1 µM. The IC50 ([5]; Homo sapiens, 72 h) was about 10 µM, the IC50 [5] was 11.4 ± 1.8 µM and the “Cell Cycle Distribution, G0G1” value ([6]; 25 μM) was 45.8 ± 2.7%. The “Cell Cycle Distribution, G2/M” value ([6]; 25 μM) was 12.3 ± 3.1%, the “Cell Cycle Distribution, S” value ([6]; 25 μM) was 41.9 ± 4.2% and the “Cell Cycle Distribution, G0G1” value ([6]; 50 μM) was 30.7 ± 9.4%. For the same compound, the “Cell Cycle Distribution, G2/M” value ([6]; 50 μM) was 30.3 ± 10.5%, the “Cell Cycle Distribution, S” value ([6]; 50 μM) was 45.5 ± 12.4% and the “Cell Cycle Distribution, G0G1” value ([6]; 100 μM) was 19.9 ± 6.1%. The “Cell Cycle Distribution, G2/M” value ([6]; 100 μM) was 25.9 ± 7.8%, the “Cell Cycle Distribution, S” value ([6]; 100 μM) was 54.2 ± 8.6% and the “DNA debris in the sub-G0/G1 region” value ([6]; SKOV-3, 48 h, 25-100 μM) was “appearance of DNA debris in the sub-G0G1 region”. For the same compound, the PARP cleavage (NIH-3T3 cells) was “little evidence of this proteolytic event”, the “cytotoxic effect against growth of established tumor cells” value [7] was “significant cytotoxic effect” and the cells died [8] was 50%.
